Results reported in US20240025880A1 (CHIESI FARMACEUTICI S.P.A., priority 2020, published 2024).
Read-outs that look alike come from different tables or passages of the source.

Key:
h P2X2/3 = target: T1, h P2X2/3 (Homo sapiens, UniProt P56373+Q9UBL9); assay: In vitro electrophysiology assay for P2X2/3 (same protocol, 10 μM ATP agonist); assay type: cell-based; settings: Table 3, mean current seven seconds after agonist, read-out: h P2X2/3 (pIC50 range of activity) (converted)
T1 construct: host or cells: cells not described; same protocol as the P2X3 assay
T1 sequence (P56373 1-397): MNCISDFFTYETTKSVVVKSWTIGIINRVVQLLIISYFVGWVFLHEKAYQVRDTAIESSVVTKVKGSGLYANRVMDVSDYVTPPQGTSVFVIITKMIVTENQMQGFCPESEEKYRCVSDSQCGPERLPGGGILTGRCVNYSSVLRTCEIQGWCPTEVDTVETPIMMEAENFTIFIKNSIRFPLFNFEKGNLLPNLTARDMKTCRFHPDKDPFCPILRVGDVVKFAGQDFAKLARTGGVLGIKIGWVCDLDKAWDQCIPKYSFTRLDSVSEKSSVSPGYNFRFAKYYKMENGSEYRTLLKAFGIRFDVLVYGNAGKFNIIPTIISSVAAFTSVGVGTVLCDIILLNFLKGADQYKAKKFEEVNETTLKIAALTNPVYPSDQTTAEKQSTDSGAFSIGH
T1 sequence (Q9UBL9 1-471): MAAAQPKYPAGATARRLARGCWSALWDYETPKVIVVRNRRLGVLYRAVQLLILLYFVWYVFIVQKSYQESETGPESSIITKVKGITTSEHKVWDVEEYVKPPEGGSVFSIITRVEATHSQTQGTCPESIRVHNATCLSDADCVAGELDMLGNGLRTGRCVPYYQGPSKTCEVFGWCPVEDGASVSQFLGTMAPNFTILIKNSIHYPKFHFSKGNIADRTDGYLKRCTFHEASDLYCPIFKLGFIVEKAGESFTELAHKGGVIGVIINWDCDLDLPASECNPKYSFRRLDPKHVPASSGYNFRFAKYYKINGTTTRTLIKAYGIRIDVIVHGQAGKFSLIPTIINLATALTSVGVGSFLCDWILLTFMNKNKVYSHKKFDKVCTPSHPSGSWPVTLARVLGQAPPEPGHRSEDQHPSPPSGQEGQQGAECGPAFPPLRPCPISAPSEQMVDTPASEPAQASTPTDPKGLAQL
Protocol: Cells expressing P2X3 receptors were grown according to standard practice and maintained at 37° C. in a 5% humidified CO2 atmosphere. The cells were seeded into T175 flask 2 days prior to the day of the assay and dissociated from the flasks using TrypLE when grown to confluence of 80-90%. The dissociated cells were resuspended in serum free media at a cell density of 3×10^6 cells/ml and loaded onto the Sophion Qube automated patch-clamp system. The extracellular assay buffer contained 145 mM NaCl, 4 mM KCl, 2 mM CaCl2, 1 mM MgCl2, 10 mM HEPES, and 10 mM glucose at pH 7.4. The intracellular assay solution contained 140 mM CsF, 10 mM NaCl, 10 mM EGTA, 10 mM HEPES at pH 7.2. Agonist stock solutions were prepared in H2O and diluted in bath solution prior to use. All antagonists were prepared as 10 mM stock solutions in DMSO and diluted in bath solution prior to use. All experiments were performed under the whole-cell patch clamp configuration at room temperature with 384 individual cells being voltage clamped at −60 mV simultaneously on the Sophion Qube instrument. Two baseline responses were established with the application of α,β-MeATP (800 nM), with the subsequent agonist applications being washed out using extracellular assay buffer containing 0.5 U/ml apyrase. Following the second agonist application, antagonist was incubated in the absence of α,β-MeATP for 10 minutes. After antagonist preincubation, 800 nM α,β-MeATP and antagonist were co-administered to determine the inhibitory effect of the antagonist. One concentration of an antagonist was assessed against a single cell, with different concentrations of the antagonist applied to other cells on the 384 recording substrate. The control P2X3 current amplitude was taken from the peak current amplitude from the second agonist response prior to preincubation with antagonist. The peak P2X3 current amplitude in the presence of antagonist was used to calculate the inhibitory effect at each concentration of the antagonist according to the following equation: […]
In vitro Electrophysiology Assay for P2X2/3
Representative compound of the present invention have been also tested for P2X2/3 receptor.
The same assay protocol was used for the P2X2/3 assay as the P2X3 assay with two modifications: 1) 10 μM ATP was used as the agonist; and 2) the mean current amplitude was measured seven seconds after the application of agonist.

h P2X3 = target: T2, h P2X3 (Homo sapiens, UniProt P56373); assay: In vitro electrophysiology assay for P2X3 (automated whole-cell patch clamp, α,β-MeATP agonist); assay type: cell-based; settings: 800 nM α,β-MeATP, peak current, read-out: h P2X3 (pIC50 range of activity) (converted)
T2 sequence (P56373 1-397): T1 sequence (P56373 1-397)
Outline: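 Automated whole-cell patch clamp of P2X3-expressing cells at −60 mV, room temperature, pH 7.4 bath with CsF internal solution. Antagonist preincubated 10 min, then co-applied with 800 nM α,β-MeATP; peak current inhibition versus second agonist response, ten concentrations, IC50 from four-parameter fit.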

Compound: COC(=O)N1CCC(Oc2cc(-c3ccc(F)cc3)cc3c(NCc4ccc(C)nn4)ncnc23)CC1 [Example 65, Methyl 4-[6-(4-fluorophenyl)-4-[(6-methylpyridazin-3-yl)methylamino]quinazolin-8-yl]oxypiperidine-1-carboxylate]
- IC50 (h P2X2/3): 3.16 to 31.6 µM
- IC50 (h P2X3; Table 2): 0.316 to 3.16 µM
- IC50 (h P2X3; Table 3): 0.316 to 3.16 µM

Compound: COC(=O)N1CCC(Oc2cc(-c3ccc(F)cc3)cc3c(NCc4ccc(C)nn4)ncnc23)C1 (stereo not drawn) [Example 68, Methyl 3-[6-(4-fluorophenyl)-4-[(6-methylpyridazin-3-yl)methylamino]quinazolin-8-yl]oxypyrrolidine-1-carboxylate]
- IC50 (h P2X2/3): 3.16 to 31.6 µM
- IC50 (h P2X3; Table 2): 0.316 to 3.16 µM
- IC50 (h P2X3; Table 3): 0.316 to 3.16 µM
